Experimental data taken from patent publication US20090068143A1, “ORALLY EFFECTIVE C[…]” (priority 2005, published 2009).

Assays:
[1] = Stability in aqueous solutions; assay type: physicochemical; details: 95 μg/ml in citrate buffer (pH 7.1), 4° C.
Experimental: Stability of compounds of the invention in aqueous solutions was compared. Compounds were dissolved in buffer phosphate solutions and their concentration monitored using HPLC and spectrophotometer methodology. While compound 18F at concentration of 2 mg/ml in phosphate buffer (pH 7.0) was stable for at least 3 months at 4° C., compound 18B at concentration of 95 μg/ml in citrate buffer (pH 7.1) readily hydrolyzed in less than 24 hours at 4° C. Therefore, compounds that were designed following the same rational yielded unexpectedly divergent outcome, for instance in connection with stability in aqueous solutions.

visceral pain = test: Visceral pain, acetic acid induced writhing responses; assay type: in vivo, ICR mice; details: for inhibition of writhing responses as compared to vehicle treated group: 2 mg/kg i.v.
Experimental: For the i.v. part of the study, compounds were dissolved in CREMOPHOR®:Ethanol and diluted 1:20 in saline prior to injection, fifteen minutes before pain induction. When compounds were delivered per os, they were dissolved in phosphate buffer or in CREMOPHOR®:Ethanol as previously described and administered 1 hour before pain induction. Each treatment group, except for controls comprising at least 30 animals, was composed of at least 6 animals. Fifteen or sixty minutes later, depending on the route selected for drug administration, the mice were injected i.p. with 10 ml/kg of 0.6% acetic acid and the number of visceral pain related behaviors (writhing, stretching, contractions of the abdomen accompanied by an elongation of the body and extension of the hind limbs) is counted over a period of 5 minutes, starting 5 minutes after the acetic acid administration. These visceral pain related behaviors are globally defined as writhing responses (WR). The results are expressed as mean number of writhing responses±SEM. Data were analyzed using analysis of variance (ANOVA) followed by post-hoc Fisher test. A value of p<0.05 was considered to be statistically significant and is indicated on the figure by an asterisk over the relevant treatment group.
The following results were obtained at 2 mg/kg i.v. of test compounds or, in the case of the study performed with cannabinoid receptor antagonists, 1 mg/kg test compound or antagonist alone and 1 mg/kg test compound+1 mg/kg antagonist. In a separate study, it was shown that analgesic activity of compounds of the invention was dose related.

iNOS [2] = test: iNOS gene expression in LPS activated RAW 264.7 macrophages (real-time RT-PCR); assay type: cell-based, mouse; details: for inhibition of iNOS gene expression: 10 μM, 1 h pre-treatment, 3 hrs after LPS activation
Experimental: (§1) RAW 264.7 macrophages, a mouse cell line (ATCC # TIB 71), were grown in Dulbecco's modified Eagle's medium (DMEM) with 4 mM L-glutamine adjusted to contain 1.5 g/L sodium bicarbonate, 4.5 g/L glucose, and 10% heat inactivated fetal bovine serum. Cells were grown in tissue culture flasks and seeded at appropriate density into 6 wells tissue culture plates. Four million Raw cells in half a milliliter were stimulated with 1 μg/ml Lipopolysaccharide E. coli 055:B5 (DIFCO Laboratories). The mouse macrophages were pre-treated for one hour with controls or 10 μM of test compounds, and later on activated with LPS. RNA samples were extracted from the cells 3 hrs after activation and iNOS gene expression levels were analyzed by real-time RT-PCR as previously described. For western blot analysis, compounds were tested at 1, 5 and 10 μM and cells were harvested 24 hrs after LPS stimulation. Supernatant were collected and NO secretion was analyzed using ELISA. Cells were washed 3 times with cold PBS, scrapped and lyzed in 100 μl cell lysis buffer containing 20 mM HEPES, pH 7.6, 150 mM NaCl, 1.5 mM MgCl2, 0.2 mM EDTA, 1% Triton X-100, 10% glycerol, 1 mM DTT, 1 mM PMSF, 10 μg/ml aprotinin. 5 µg/ml leupeptin, 10 mM p-nitrophenyl phosphate, 100 mM β-glycerophosphate, 1 mM sodium fluoride, and 0.1 μM sodium orthovanadate. Cells were lyzed on ice for 10 minutes before further processing.
The results of this experiment are expressed as fold activation of iNOS over non-activated macrophages, after normalization to cyclophilin A expression. Compound 18A inhibits 63% of iNOS gene expression, and compounds 18B, 18E and 18F inhibit 55%, 25% and 100% respectively. […] This surprising observation strengthen the fact that compounds of the invention, though chemically related, have distinct and unexpected properties.

[3] = Actual solubility in aqueous buffers / cosolvent (HPLC, spectrophotometer); assay type: physicochemical
Experimental: The actual solubility of certain compounds of the invention was assessed in aqueous buffers and final concentration of compounds was determined using HPLC and spectrophotometer methodologies. […] Therefore, compounds that were designed following the same rational yielded unexpectedly divergent outcome, for instance in connection with solubility in aqueous solutions.
It should be noted that following lyophilization compound 18F could be dissolved in 80 mM phosphate buffer at pH 6.9 even more efficiently at concentrations up to 60 mg/ml, about two order of magnitudes higher than expected.
Approximately 11 g of compound 18F were lyophilized in one lyophilization cycle. A cosolvent mixture comprising 38.6% w/v of compound 18F was divided into several dishes to fit the lyophilization chamber. As a result of lyophilization, a dry product with improved physical properties such as flowability and less stickiness was obtained.

CB1 receptor = CB1 receptor (Homo sapiens, UniProt P21554); test: CB1 binding assay
Sequence of CB1 receptor (P21554 whole entry): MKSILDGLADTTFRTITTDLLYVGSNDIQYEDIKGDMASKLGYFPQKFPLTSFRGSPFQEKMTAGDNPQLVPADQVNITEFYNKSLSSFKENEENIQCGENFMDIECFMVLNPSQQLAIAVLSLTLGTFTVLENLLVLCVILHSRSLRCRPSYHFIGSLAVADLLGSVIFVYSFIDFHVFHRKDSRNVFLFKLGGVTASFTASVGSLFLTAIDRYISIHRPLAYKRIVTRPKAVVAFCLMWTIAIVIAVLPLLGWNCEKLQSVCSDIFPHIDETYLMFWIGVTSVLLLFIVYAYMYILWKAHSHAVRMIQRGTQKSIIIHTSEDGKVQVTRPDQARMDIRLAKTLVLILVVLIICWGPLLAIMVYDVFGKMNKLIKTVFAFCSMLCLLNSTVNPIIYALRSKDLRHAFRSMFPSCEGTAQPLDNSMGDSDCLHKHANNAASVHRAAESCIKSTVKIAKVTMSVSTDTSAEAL

CB2 receptor = CB2 receptor (Homo sapiens, UniProt P34972); test: CB2 binding assay
Sequence of CB2 receptor (P34972 whole entry): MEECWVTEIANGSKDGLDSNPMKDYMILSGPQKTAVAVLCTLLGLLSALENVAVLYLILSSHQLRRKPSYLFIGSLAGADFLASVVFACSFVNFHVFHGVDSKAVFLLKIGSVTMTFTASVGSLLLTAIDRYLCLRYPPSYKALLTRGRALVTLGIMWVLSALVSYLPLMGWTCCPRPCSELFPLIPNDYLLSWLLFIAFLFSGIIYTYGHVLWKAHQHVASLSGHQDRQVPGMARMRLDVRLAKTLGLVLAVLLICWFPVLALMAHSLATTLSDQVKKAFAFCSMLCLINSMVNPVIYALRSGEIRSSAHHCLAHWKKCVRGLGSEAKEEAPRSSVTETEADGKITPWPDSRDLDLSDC

EAE = details: 40 mg/kg p.o. daily for 21 days from disease induction, cited from earlier work
MBP induced acute EAE = test: MBP induced acute EAE; assay type: in vivo, Lewis rats; details: 0.5-1 mg/kg i.v., 3 days after clinical onset
Experimental: In the present study, EAE was induced by injection of Myelin Basic Protein (MBP), a method known to model the acute phase of MS. In this model the onset of the disease is observed by the appearance of clinical symptoms about 10 days after induction. The disease progresses and the clinical score increases and peaks around day 15 and spontaneous recovery is observed around day 23 after induction of the disease.
Female Lewis rats (average body weight 130-180 g, Harlan, Israel) were injected s.c. into the hind paws with 25 μg of purified guinea pig myelin basic protein (MBP, Sigma) emulsified in 0.1 ml of Complete Freund's Adjuvant (Difco). Animals were maintained on a 12 hours light/12 hours dark regimen, at a constant temperature of 22° C., with food and water ad libitum. Starting from day 8 following induction, animals were followed up on a daily basis. The results are recorded as clinical score; score of 0 indicates a normal animal with no clinical signs, 0.5 indicates a loss of tonicity in the tail's distal part, 1 indicates whole tail paralysis, 1.5 indicates hind legs weakness in one leg, 2 indicates hind legs weakness in two legs, 2.5 indicates fore legs paralysis in one leg, 3 indicates paralysis of all four legs, 4 indicates complete body paralysis and moribund state and 5 indicates death. The clinical score of the animals is recorded for 15 days following onset of disease until the end of the study 25 days following induction and the area under the curve (AUC) is calculated over this period of time.
Few routes of administration were assessed and the treatments were either administered intravenously (in CE vehicle) or orally by gavage (in PB vehicle) at volume dose of 5 ml/kg.
Results are expressed as mean±SEM and the differences between the treatment groups were analyzed by analysis of variance (ANOVA) followed by Tukey's post hoc test. A value of p<0.05 was considered to be statistically significant and is indicated on the figure by an asterisk over the relevant treatment group.
Compound 18A was dissolved in CREMOPHOR EL®:ethanol and further diluted in physiological buffer prior to i.v. administration. It is now disclosed that compound 18F could be dissolved directly in 80 mM phosphate buffer (pH 6.4) and administered p.o. Compound 18F was administered by oral gavage at doses of 20, 30, 40, 50 and 60 mg/kg to animals showing clinical signs of the disease. Each treatment group comprised at least 10 animals at onset of disease. At some doses, experiments were repeated up to four times.

RAW 264.7 macrophages = test: NO secretion of LPS activated RAW 264.7 macrophages (ELISA); assay type: cell-based; details: Mus musculus, RAW264.7, 24 hrs after LPS stimulation
Experimental: as §1, with “processing. […]” for “processing.”

iNOS [4] = test: iNOS protein expression in activated macrophages (western blot); assay type: cell-based, mouse; details: 1, 5 and 10 μM, 24 hrs after LPS stimulation
Experimental: as §1, with “Cells were washed 3 times with cold PBS, scrapped and lyzed in 100 μl cell lysis buffer containing 20 mM HEPES, pH 7.6, 150 mM NaCl, 1.5 mM MgCl2, 0.2 mM EDTA, 1% Triton X-100, 10% glycerol, 1 mM DTT, 1 mM PMSF, 10 μg/ml aprotinin. 5 µg/ml leupeptin, 10 mM p-nitrophenyl phosphate, 100 mM β-glycerophosphate, 1 mM sodium fluoride, and 0.1 μM sodium orthovanadate. Cells were lyzed on ice for 10 minutes before further processing.” left out
To assess correlation between gene expression and protein expression, protein extracts were prepared from the various treated activated macrophages. […] Primary antibodies against cyclophilin A were used as control (Upstate, Cat# 07-313), and the amount of iNOS was assessed using NOS2 (C11) Santa Cruz antibodies (Cat# SC-7271) were hybridized for 2 hours at room temperature. […]

[5] = test system: Taxol® induced neuropathic pain; test: Taxol® induced neuropathic pain; assay type: in vivo, Sprague Dawley rats; details: gabapentin 100 mg/kg i.p., morphine 5 mg/kg i.p.; not statistically significant
Experimental: Male Sprague Dawley rats (average body weight 150-200 g, Harlan, Israel) were administered i.p. with 6 mg/kg Taxol® (Bristol Myers Squibb, USA) every other day for 9 days. On day 13, baseline pain threshold was measured. One hour later, the animals were administered with 5 ml/kg i.p. of vehicle (PB) only and pain threshold was re-established. After an additional hour animals were treated with various doses of compound 18F ranging from 0.5 mg/kg up to 10 mg/kg administered i.p. Morphine at 5 mg/kg i.p. and gabapentin at 100 mg/kg i.p served as positive controls. Each treatment group comprised at least eight animals. One hour post drug administration pain threshold was monitored using thermal and mechanical stimuli as previously described. At the end of the study, rats were euthanized with sodium pentobarbitone 100 mg/kg i.p. Sample rats were then transfused with saline and heparinized 4% formaldehyde solution. The L4-L5 area of the spinal cord and the sciatic nerve were taken for histopathology assessment.
The time latencies for thermal hyperalgesia, and force needed to induce pain of the different treatment groups are compared, using one way ANOVA (analysis of variance), followed by Duncan's post hoc test. A p<0.05 value was considered statistically significant and is indicated on the figure by an asterisk over the relevant treatment group.

[6] = oral administration, on an average; cited from earlier work

SMILES: CCCCCCC(C)(C)c1cc(O)c([C@H]2CC(=O)C3CC2C3(C)C)c(OC(=O)CCC(=O)O)c1 (single isomer, unassigned; (-)) [Compound 18B, (−)-4-{4-[1,1-dimethylheptyl]-2-succinate-6-hydroxy-phenyl}-6,6-dimethyl-bicyclo[3.1.1]heptan-2-one]
- time to hydrolysis in solution [1]: less than 24 hours
- inhibition of writhing responses as compared to vehicle treated group (visceral pain): 95%
- inhibition of pain response as compared to untreated animals (visceral pain; 10 mg/kg p.o. in phosphate buffer): 88%
- inhibition of iNOS gene expression (iNOS [2]): 55%
- divergence of solubility from prediction ([3]; aqueous citrate buffer (pH 7.1) vs calculated): < 4 fold
- solubility ([3]; aqueous citrate buffer, pH 7.1, aqueous buffer, thermodynamic from solid, aqueous citrate buffer (pH 7.1), read-out: actual solubility): ≤ 95 µg/mL
- IC50 (CB1 receptor): 41 nM
- IC50 (CB2 receptor): 1.2 nM

SMILES: CCCCCc1cc(O)c2c(c1)OC(C)(C)[C@@H]1CC=C(C)C[C@@H]21 [Δ^8-THC, reference compound]
- decrease of number of writhing responses as compared to the untreated group (visceral pain; 10 mg/kg p.o. in CREMOPHOR®:Ethanol, not statistically significant vs vehicle): 47%
- solubility in aqueous buffer ([3]; in words): not soluble in aqueous buffer
- decrease of mean disease severity (EAE): 20%
- mean disease severity (EAE; vehicle 5.5±0.8): 4.4±0.8

SMILES: CCCCCCC(C)(C)c1cc(O)c([C@H]2CC(=O)[C@H]3C[C@@H]2C3(C)C)c(O)c1 [Compound 18A, (−)-4-[4-(1,1-Dimethylheptyl)-2,6-dihydroxy-phenyl]-6,6-dimethyl-bicyclo[3.1.1]heptan-2-one]
- inhibition of the number of writhing responses (visceral pain; 1 mg/kg i.v.): 90%
- effect of addition of CB1 antagonist on analgesic activity (visceral pain; 1 mg/kg i.v. + 1 mg/kg SR141716A): totally blocked
- effect of addition of CB2 antagonist on analgesic activity (visceral pain; 1 mg/kg i.v. + 1 mg/kg SR144528): did not affect
- inhibition of writhing responses as compared to vehicle treated group (visceral pain): total inhibition
- inhibition of writhing responses (visceral pain; 10 mg/kg p.o. in CREMOPHOR®:Ethanol): 70%
- effect of CB1 or CB2 antagonists on iNOS inhibiting activity (iNOS [2]; 5 μM of SR-141716 and SR-144528): reversed by co-administration of either CB1 or CB2 antagonists
- inhibition of iNOS gene expression (iNOS [2]): 63%
- reduction in AUC of clinical score (MBP induced acute EAE): 30-35%
- IC50 (CB1 receptor): 27.6 nM
- IC50 (CB2 receptor): 1 nM
- inhibition at 10 µM (RAW 264.7 macrophages): 63%
- iNOS protein band (western blot) (iNOS [4]): clear dose dependent disappearance of iNOS protein band

SMILES: NCC1(CC(=O)O)CCCCC1 [Gabapentin, reference compound]
- activity in visceral pain model (visceral pain; fumaric acid up to 5 mg/kg, Gabapentin up to 200 mg/kg, celecoxib up to 10 mg/kg): inactive
- effect on pain threshold [5]: trend of increasing the pain threshold

SMILES: CCCCCc1cc(O)c2c(c1)OC(C)(C)[C@@H]1CCC(C)=C[C@@H]21 [Δ^9-THC, Δ^9-tetrahydrocannabinol]
- absolute bioavailability [6]: 13%
